# Like-named read-outs stand apart in the source and are kept apart here.
# Columns and labels:
# [1] = tested on: human microvascular endothelial cells (HMEC) spheroids; test: Spheroid tubule growth assay; type: cell-based; settings: matrigel with VEGF; serotonin 50 nM, R-DOI 100 nM, TCB2 500 nM
# Protocol: FIG. 16 is a series of fluorescent micrographs showing the effect of 5HT2A receptor agonists on vascular tubule growth from tissue-like spheroids.
# HMEC cells were cultured in specially coated U-shaped bottom 96 well plates in order to form tissue-like three-dimension spheroids. Spheroids were subsequently implanted into wells that contained matrigel basement membranes supplemented with vascular endothelial growth factor (VEGF) or starved (Starvation control-no VEGF). Culture media was treated with either serotonin (50 nM), (R-DOI (100 nM), or TCB2 (500 nM) outgrowth from the spheroids of vascular-like structures was monitored microscopically.
# [2] = tested on: Herpes Simplex Virus type 1 (HSV-1) RE strain; test: Herpes stromal keratitis model, BALB/c mice, topical eye drops, clinical scoring and histology; type: in vivo; settings: for animal body weight: HSV-1 infected mice, relative to BSS controls; for HSV-induced pathological vascularization of the eye: mouse models of herpetic keratitis, ophthalmic formulation
# Protocol: DOI drops were topically applied for 7 days post infection and chronic disease was assessed up to day 15.
# There is a complete absence of inflammatory or red blood cells and no vascularization of corneal tissue. 2nd row panels: HSV infection and long-term inflammatory responses induces disruption of the epithelial layer, thickening of the stroma, and identifiable vascularization of corneal tissue (yellow arrows) with extensive presence of immune infiltrates.
# 16 BALB/c mice were randomly sorted into 3 treatment arms: 1) Ophthalmic Balanced Saline Solution diluted 1:1 in PBS (BSS+PBS) treated (6 mice); 2) DOI treated (XTPFDOI) (5 mice); 3) 1.0% TFT (TFT+PBS) (5 mice). Animals were anesthetized with […]:ketamine and both eyes were scarified in a cross hatch pattern using a curved needle. Immediately following ocular scarification, eyes were inoculated with a 3 microliter drop containing 10,000 plaque forming units (PFU) of Herpes Simplex Virus type 1 (HSV-1) RE strain. The next morning following infection, animals were treated with the respective treatment as assigned within their treatment arm. Treatments were applied topically to the eye in a 4 microliter drop. Drops were applied 4 time per day from 9:00 am to 5:30 pm, starting immediately following clinical scoring. Treatments were applied for the first 8 days post infection and then stopped. Clinical scoring was done using a slit lamp biomicroscope magnified at 16× on the days indicated by a single individual masked to the drug treatment parameters. Slit lamp biomicroscopy also included fluorescein exclusion labeling of the corneal surface following scoring of all clinical parameters. Each eye was scored independently. Animal deaths were recorded if euthanasia was required due to severe encephalitis or if animals died from HSV-associated disease. Clinically clear eyes were scored as such if no apparent signs of disease were present in any clinical parameter during the chronic phase.
# At day 15 post infection, a stage that would be during chronic immune-associated disease with no virus present, animals were euthanized and the eyes were removed for histology. Random representative eyes were prepared by taking sections through the central cornea and processed by H&E histology for visualization. Sections were examined microscopically and photographed across the central cornea.
# HSV-1 = tested on: HSV-1; design: species or system mice; settings: 500 nM; for HSV-1 reactivation from latency (in words): ex vivo TG explants
# [3] = tested on: Herpes Simplex Virus type 1 (HSV-1) RE strain; test: Herpes stromal keratitis model, C57bl/6 mice, topical eye drops; type: in vivo
# [4] = tested on: VEGF-mediated corneal vascularization; test: VEGF-mediated ocular vascularization model, topical DOI; type: in vivo, rabbit; settings: eyes treated with DOI
# Protocol: A rabbit corneal micropocket assay is used to assess the ability of topically administered DOI to prevent VEGF-mediated corneal vascularization. VEGF or saline control slow release micropellets are generated as described previously. A corneal micropocket is created in each rabbit eye 3.0 mm from the corneal limbus, and micropellets are implanted. Starting the day after implant, paired OD and OS eyes are treated four times daily with either control (OD eyes) or DOI (OS eyes) drops, respectively. The utilization of sister eyes for topical drug evaluation controls for animal-to-animal variability. Eyes are clinically assessed daily and imaged by slit lamp biomicroscopy as described in all other ocular studies herein.
# VEGF-induced vascularization and vessel permeability can lead to corneal edema, inflammation, and ocular clouding. Therefore, a panel of clinical parameters (described herein) is assessed daily by fluorescent slit-lamp biomicroscopy to ascertain the therapeutic effects of topical DOI treatment on vascularization-mediated eye disease.
# VEGF is a known mediator of vascular permeability and we have observed in this model system that edema and chemosis is common, irrespective of the extent of vascularization induced. […]
# aortic rings = test: Aortic ring assay (VEGF-mediated neovascularization); design: species or system mice
# Protocol: FIG. 13 is a series of photographs showing VEGF-mediated neovascularization from aortic rings in the presence of R-DOI, TCB2, and 4F4PP.
# These aortic rings are implanted into matrigel basement membrane and incubated in endothelial cell growth medium containing vascular endothelial growth factor. Aortic rings are continuously incubated in the presence of 5-HT2A receptor agonists and antagonists at the indicated concentrations and examined by microscopy daily. Extensive sprouting, branching and networking of new blood vessels can be observed in control aortic rings, where multiple images needed to be stitched together in order to capture the extensive blood vessel network formed.
# [5] = tested on: healthy retinal pigment epithelial cells (APRE); test: Cytotoxicity by lysis, healthy retinal cells; type: cell-based; settings: highest dose tested
# Protocol: (§1) FIG. 17 is a series of graphs showing the effect of R-DOI dose on cytotoxicity of healthy retinal pigment epithelial cells (APRE) and cancerous retinoblastoma cells (Y-79) at 24 hours (top), 48 hours (middle), and 72 hours (bottom).
# (§2) Healthy (APRE) and cancerous (Y-79) retinal cell lines were treated with varying doses of R-DOI and monitored for cytotoxicity by lysis at 24 hour intervals.
# [6] = tested on: cancerous retinoblastoma cells (Y-79); test: Cytotoxicity by lysis, retinoblastoma cells; type: cell-based; settings: varying doses
# Protocol: as §1, §2
# [7] = relative to BSS controls and TFT controls, by day 12 post-infection
compound,measurement,setting,value
"NCCc1c[nH]c2ccc(O)cc12 [Serotonin, 5 hydroxytryptamine, reference compound]",vascular-like tubular growth from HMEC spheroids,[1],induced vascularization-like replication and tubule growth
"O=c1[nH]c(=O)n([C@H]2C[C@H](O)[C@@H](CO)O2)cc1C(F)(F)F [TFT, trifluorothymidine, reference compound]",HSV replication,[2]; 1% TFT,complete inhibition of HSV replication
same,animal body weight,[2],did not change body weight relative to BSS controls
"COc1cc(CC(C)N)c(OC)cc1I (stereo not drawn) [DOI, 1-(4-Iodo-2,5-dimethoxyphenyl)propan-2-amine]",ganglia positive for infectious HSV-1 (number/total),HSV-1; day 1 post-explant,0/7
same,percentage positive for infectious HSV-1,HSV-1; day 1 post-explant,(0%)
same,ganglia positive for infectious HSV-1 (number/total),HSV-1; day 2 post-explant,0/7
same,percentage positive for infectious HSV-1,HSV-1; day 2 post-explant,(0%)
same,ganglia positive for infectious HSV-1 (number/total),HSV-1; day 3 post-explant,0/7
same,percentage positive for infectious HSV-1,HSV-1; day 3 post-explant,(0%)
same,ganglia positive for infectious HSV-1 (number/total),HSV-1; day 4 post-explant,0/7
same,percentage positive for infectious HSV-1,HSV-1; day 4 post-explant,(0%)
same,ganglia positive for infectious HSV-1 (number/total),HSV-1; day 5 post-explant,0/7
same,percentage positive for infectious HSV-1,HSV-1; day 5 post-explant,(0%)
same,ganglia positive for infectious HSV-1 (number/total),HSV-1; day 6 post-explant,0/7
same,percentage positive for infectious HSV-1,HSV-1; day 6 post-explant,(0%)
same,ganglia positive for infectious HSV-1 (number/total),HSV-1; day 7 post-explant,0/7
same,percentage positive for infectious HSV-1,HSV-1; day 7 post-explant,(0%)
same,ganglia positive for infectious HSV-1 (number/total),HSV-1; day 8 post-explant,1/7
same,percentage positive for infectious HSV-1,HSV-1; day 8 post-explant,(14.3%)
same,ganglia positive for infectious HSV-1 (number/total),HSV-1; day 9 post-explant,1/7
same,percentage positive for infectious HSV-1,HSV-1; day 9 post-explant,(14.3%)
same,ganglia positive for infectious HSV-1 (number/total),HSV-1; day 10 post-explant,2/7
same,percentage positive for infectious HSV-1,HSV-1; day 10 post-explant,(28.6%)
same,delay in reactivation of HSV-1 from TGs,HSV-1; relative to mock,2 fold
same,degree of reactivation and amount of infectious virus shed from latent neurons (PFU/ml/TG; PFU/ml/positive TG),HSV-1; relative to mock treated neurons,significantly inhibited the degree of reactivation and amount of infectious virus shed from latent neurons
same,HSV-1 reactivation from latency (in words),HSV-1,maintains latency of HSV-1 within reactivation induced neurons
same,animal body weight,[2],retained
same,eyes exhibiting complete clinical resolution,[2]; by day 15,60%
same,histopathology of the eye (cornea),[2]; day 15 post infection,normal ocular morphology with an absence of clinical signs of ocular disease
same,development of all clinically scored parameters,"[2]; drops for 7 days post infection, chronic disease assessed up to day 15",suppressed development of all clinically scored parameters
same,control of acute and chronic vision-threatening disease compared to TFT,[2]; herpetic eye disease model,superior at controlling both acute and chronic vision-threatening disease
same,neovascularization score,[2]; [7],decreased
same,slit lamp score,[2]; [7],decreased
same,stroma capacity score,[2]; [7],decreased
same,clinical scores (three metrics),"[3]; compared to BSS control, by day 16 post-infection",even greater improvement in each metric
same,"clinical scores (slit-lamp biomicroscopy, stromal opacity/inflammation, corneal neovascularization)","[3]; relative to BSS controls, by day 12 post-infection, 4 μl/eye 4x daily for 8 days",decreased score in all three metrics
same,clinical presentation of edema and chemosis,[4],greatly reduced
same,vascularization of the eye,[4],resolution of vascularization
same,vascular-like tubular growth from HMEC spheroids,[1],abrogated formation of vascular-like tubular growth
"COc1cc(C[C@@H](C)N)c(OC)cc1I [R-DOI, R-2,5-Dimethoxy-4-iodoamphetamine]","inhibitory effects for neovascularization, sprouting, branching, and networking",aortic rings; 10 nM concentration,began to no longer be as effective
same,"blood vessel sprouting, branching and formation","aortic rings; VEGF-containing endothelial growth medium, matrigel","inhibited blood vessel sprouting, branching and formation"
same,HSV-1 reactivation from latency (in words),HSV-1,inhibits HSV-1 reactivation from latent neurons
same,HSV-1 reactivation from latency (in words),HSV-1; listed as (R)-DOI,inhibited HSV-1 reactivation from latency
same,cytotoxicity by lysis,[5],modest cytotoxicity
same,HSV-induced pathological vascularization of the eye,[2],suppressed HSV-induced pathological vascularization of the eye
same,HSV-induced pathological vascularization of the eye,[2]; listed as (R)-DOI,demonstrated anti-vascularization properties
same,cytotoxicity by lysis,"[6]; Y-79, 24 hours","strong, dose-dependent toxicity"
same,cytotoxicity by lysis,"[6]; Y-79, 48 hours",killing effect was saturated at all doses
